Test results: patent publication US9415055B2, “Cyclic amines” (H. Lundbeck A/S, priority 2012, dated 2016)

Target: P2X7 receptor (Homo sapiens (Human), UniProt Q99572)
Assay: P2X7 FLIPR assay: antagonism of BzATP response in 293 HEK cells stably expressing P2X7 receptor
Format: cell-based
Settings: FLIPR fluorescence (Fluo-4), agonist BzATP, 293 HEK cells stably transfected with P2X7 receptor
Procedure: Cells were plated to cell density of approximately 15,000 cells/well in 384-well assay plates (50 μl/well) with 1.5% low serum media (DMEM, 1.5% BCS, 1% L-glut (2 mM), 1% P/S).
Cells were plated to cell density of approximately 15,000 cells/well in 384-well assay plates (50 μl/well) with 1.5% low serum media (DMEM, 1.5% FBS, 1% L-glut (2 mM), 10 mM HEPES, 1% P/S). Cells were plated 24 hours prior to assay. Cells expressing human, rat or mouse P2X7 receptor were assayed in the following manner.
Fluo-4 NW dye mix (Molecular Probes, Inc., Eugene, Oreg., USA) was prepared in buffer (see manufacturer's instructions). Cell plates were removed from the 37° C. incubator, the media discarded and then 30 μL of dye was added to each well. Plates were placed in the 37° C., non-CO2 incubator for 30 minutes and then room temperature for 30 minutes.
Compound mixtures (A) were added to assay plates containing cells and placed at room temperature for 30 minutes, then BzATP (B) was added. Fluorescence was read using the Tetra FLIPR® (Molecular Devices, Inc., Sunnyvale, Calif., USA) and IC50 values were calculated by standard methods to determine antagonist activity.

Chain of P2X7 receptor (Q99572 whole entry): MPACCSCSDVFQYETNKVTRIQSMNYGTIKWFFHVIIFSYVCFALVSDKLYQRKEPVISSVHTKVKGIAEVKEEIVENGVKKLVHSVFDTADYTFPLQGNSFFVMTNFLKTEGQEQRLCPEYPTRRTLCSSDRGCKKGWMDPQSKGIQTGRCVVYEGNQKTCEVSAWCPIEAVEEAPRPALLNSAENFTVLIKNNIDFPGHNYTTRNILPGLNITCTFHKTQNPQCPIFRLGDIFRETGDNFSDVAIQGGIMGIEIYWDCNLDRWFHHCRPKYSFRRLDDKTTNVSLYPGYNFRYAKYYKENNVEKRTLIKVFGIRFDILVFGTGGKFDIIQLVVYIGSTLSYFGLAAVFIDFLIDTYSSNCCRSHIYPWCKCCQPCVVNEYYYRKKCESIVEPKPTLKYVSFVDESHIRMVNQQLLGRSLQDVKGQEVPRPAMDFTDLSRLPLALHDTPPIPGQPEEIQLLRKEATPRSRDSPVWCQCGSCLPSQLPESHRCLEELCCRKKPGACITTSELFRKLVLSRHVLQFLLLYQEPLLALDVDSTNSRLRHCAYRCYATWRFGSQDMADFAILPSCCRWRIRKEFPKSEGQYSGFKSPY

Compound | IC50
Cc1ccc(C(CNC(=O)c2cccc(F)c2Cl)N2CCC(F)(F)CC2)cn1 (single isomer, unassigned; (+)) [(+)2-chloro-N-[2-(4,4-difluoro-1-piperidyl)-2-(6-methyl-3-py] [(+)2-chloro-3-fluoro-N-(2-(4,4-difluoropiperidin-1-yl)-2-(2-methylpyridin-5-yl)ethyl)benzamide] | 33 nM
COc1ccc(C(=O)NCC(c2cnc(C(F)(F)F)nc2)N2CCC(F)(F)CC2)c(Cl)c1OC (single isomer, unassigned; (+)) [(+)2-chloro-N-[2-(4,4-difluoro-1-piperidyl)-2-[2-(trifluorom] [(+)2-chloro-3,4-dimethoxy-N-(2-(4,4-difluoropiperidin-1-yl)-2-(2-(trifluoromethyl)pyrimidin-5-yl)ethyl)benzamide] | 14 nM
O=C(NCC(c1cnc(C(F)(F)F)nc1)N1CCC(F)(F)CC1)c1c(F)cccc1Cl (single isomer, unassigned; (+)) [(+)2-chloro-N-[2-(4,4-difluoro-1-piperidyl)-2-[2-(trifluorom] [(+)2-chloro-6-fluoro-N-(2-(4,4-difluoropiperidin-1-yl)-2-(2-(trifluoromethyl)pyrimidin-5-yl)ethyl)benzamide] | 8.3 nM
O=C(NCC(c1cnc(C(F)(F)F)nc1)N1CCC(F)(F)CC1)c1cccc(F)c1Cl (single isomer, unassigned; (+)) [(+)2-chloro-N-[2-(4,4-difluoro-1-piperidyl)-2-[2-(trifluorom] [(+)2-chloro-N-(2-(4,4-difluoropiperidin-1-yl)-2-(2-(trifluoromethyl)pyrimidin-5-yl)ethyl)-3-fluorobenzamide] | 1.7 nM
O=C(NCC(c1ccc(C(F)(F)F)nc1)N1CCC(F)(F)CC1)c1cccc(F)c1Cl (single isomer, unassigned; (+)) [(+)2-chloro-N-[2-(4,4-difluoro-1-piperidyl)-2-[6-(trifluorom] [(+)2-chloro-N-(2-(4,4-difluoropiperidin-1-yl)-2-(2-(trifluoromethyl)pyridin-5-yl)ethyl)-3-fluorobenzamide] | 1.7 nM
N#Cc1ccc(Cl)c(C(=O)NCC(c2ccc(Cl)cc2)N2CCOCC2)c1 (single isomer, unassigned; (+)) [(+)2-chloro-N-[2-(4-chlorophenyl)-2-morpholino-ethyl]-5-cyan] [(+)2-chloro-N-(2-(4-chlorophenyl)-2-morpholinoethyl)-5-cyanobenzamide] | 23 nM
CS(=O)(=O)c1ccc(Cl)c(C(=O)NCC(c2ccc(Cl)cc2)N2CCOCC2)c1 (single isomer, unassigned; (+)) [(+)2-chloro-N-[2-(4-chlorophenyl)-2-morpholino-ethyl]-5-meth] [(+)2-chloro-N-(2-(4-chlorophenyl)-2-morpholinoethyl)-5-(methylsulfonyl)benzamide] | 180 nM
Cc1ncc(C(CNC(=O)c2ccccc2Cl)N2CCC(F)CC2)cn1 (single isomer, unassigned; (+)) [(+)2-chloro-N-[2-(4-fluoro-1-piperidyl)-2-(2-methylpyrimidin] [(+)2-chloro-N-(2-(4-fluoropiperidin-1-yl)-2-(2-methylpyrimidin-5-yl)ethyl)benzamide] | 50 nM
O=C(NCC(c1cnc(C(F)F)nc1)N1CCOCC1)c1cccc(F)c1Cl (single isomer, unassigned; (+)) [(+)2-chloro-N-[2-[2-(difluoromethyl)pyrimidin-5-yl]-2-morpho] [(+)2-chloro-3-fluoro-N-(2-(2-(difluoromethyl)pyrimidin-5-yl)-2-morpholinoethyl)benzamide] | 4.8 nM
O=C(NCC(c1cnc(C(F)(F)F)nc1)N1CCOCC1)c1cccc(C(F)(F)F)c1Cl (single isomer, unassigned; (+)) [(+)2-chloro-N-[2-morpholino-2-[2-(trifluoromethyl)pyrimidin-] [(+)2-Chloro-N-[2-morpholino-2-[2-(trifluoromethyl)pyrimidin-5-yl]ethyl]-3-(trifluoromethyl)benzamide] | 17 nM

Now from value to compound:

IC50 | Compound
19 nM | Cc1ncc(C(CNC(=O)c2c(F)cccc2Cl)N2CCC(F)(F)CC2)cn1 (single isomer, unassigned; (+)) [(+)2-chloro-N-[2-(4,4-difluoro-1-piperidyl)-2-(2-methylpyrim] [(+)2-chloro-6-fluoro-N-(2-(4,4-difluoropiperidin-1-yl)-2-(2-methylpyrimidin-5-yl)ethyl)benzamide]
21 nM | Cc1ncc(C(CNC(=O)c2cccc(OC(F)(F)F)c2Cl)N2CCC(F)(F)CC2)cn1 (single isomer, unassigned; (+)) [(+)2-chloro-N-[2-(4,4-difluoro-1-piperidyl)-2-(2-methylpyrim] [(+)2-chloro-N-(2-(4,4-difluoropiperidin-1-yl)-2-(2-methylpyrimidin-5-yl)ethyl)-3-(trifluoromethoxy)benzamide]
13 nM | Cc1ncc(C(CNC(=O)c2ccccc2Cl)N2CCC(F)(F)CC2)cn1 (single isomer, unassigned; (+)) [(+)2-chloro-N-[2-(4,4-difluoro-1-piperidyl)-2-(2-methylpyrim] [(+)2-chloro-N-[2-(4,4-difluoro-1-piperidyl)-2-(2-methylpyrimidin-5-yl)ethyl]benzamide]
110 nM | Cc1ccc(C(CNC(=O)c2c(F)cccc2Cl)N2CCC(F)(F)CC2)cn1 (single isomer, unassigned; (+)) [(+)2-chloro-N-[2-(4,4-difluoro-1-piperidyl)-2-(6-methyl-3-py] [(+)2-chloro-N-(2-(4,4-difluoropiperidin-1-yl)-2-(6-methylpyridin-3-yl)ethyl)-6-fluorobenzamide]
9.4 nM | O=C(NCC(c1cnc(C(F)(F)F)nc1)N1CCC(F)(F)CC1)c1c(F)cc(F)cc1Cl (single isomer, unassigned; (+)) [(+)2-chloro-N-[2-(4,4-difluoro-1-piperidyl)-2-[2-(trifluorom] [(+)2-chloro-4,6-difluoro-N-(2-(4,4-difluoropiperidin-1-yl)-2-(2-(trifluoromethyl)pyrimidin-5-yl)ethyl)benzamide]
3.6 nM | COc1cccc(C(=O)NCC(c2cnc(C(F)(F)F)nc2)N2CCC(F)(F)CC2)c1Cl (single isomer, unassigned; (+)) [(+)2-chloro-N-[2-(4,4-difluoro-1-piperidyl)-2-[2-(trifluorom] [(+)2-chloro-N-(2-(4,4-difluoropiperidin-1-yl)-2-(2-(trifluoromethyl)pyrimidin-5-yl)ethyl)-3-methoxybenzamide]
8.9 nM | COc1ccc(F)c(C(=O)NCC(c2cnc(C(F)(F)F)nc2)N2CCC(F)(F)CC2)c1Cl (single isomer, unassigned; (+)) [(+)2-chloro-N-[2-(4,4-difluoro-1-piperidyl)-2-[2-(trifluorom] [(+)2-chloro-N-(2-(4,4-difluoropiperidin-1-yl)-2-(2-(trifluoromethyl)pyrimidin-5-yl)ethyl)-6-fluoro-3-methoxybenzamide]
4.2 nM | COc1cccc(C(=O)NCC(c2ccc(Cl)cc2)N2CCOCC2)c1Cl (single isomer, unassigned; (+)) [(+)2-chloro-N-[2-(4-chlorophenyl)-2-morpholino-ethyl]-3-meth] [(+)2-chloro-N-(2-(4-chlorophenyl)-2-morpholinoethyl)-3-methoxybenzamide]
15 nM | O=C(NCC(c1cnc(C(F)(F)F)nc1)N1CCC(F)CC1)c1ccccc1Cl (single isomer, unassigned; (+)) [(+)2-chloro-N-[2-(4-fluoro-1-piperidyl)-2-[2-(trifluoromethy] [(+)2-chloro-N-(2-(4-fluoropiperidin-1-yl)-2-(2-(trifluoromethyl)pyrimidin-5-yl)ethyl)benzamide]
60 nM | O=C(NCC(c1cnc(C(F)F)nc1)N1CCOCC1)c1ccccc1Cl (single isomer, unassigned; (+)) [(+)2-chloro-N-[2-[2-(difluoromethyl)pyrimidin-5-yl]-2-morpho] [(+)2-chloro-N-(2-(2-(difluoromethyl)pyrimidin-5-yl)-2-morpholinoethyl)benzamide]
2.3 nM | COc1cccc(C(=O)NCC(c2ccc(C(F)F)nc2)N2CCC(F)(F)CC2)c1Cl (single isomer, unassigned; (+)) [(+)2-chloro-N-[2-[6-(difluoromethyl)-3-pyridyl]-2-(4,4-diflu] [(+)2-chloro-3-methoxy-N-(2-(2-(difluoromethyl)pyridin-5-yl)-2-(4,4-difluoropiperidin-1-yl)ethyl)benzamide]
9 nM | O=C(NCC(c1ccc(C(F)F)nc1)N1CCC(F)(F)CC1)c1ccccc1Cl (single isomer, unassigned; (+)) [(+)2-chloro-N-[2-[6-(difluoromethyl)-3-pyridyl]-2-(4,4-diflu] [(+)2-chloro-N-(2-(2-(difluoromethyl)pyridin-5-yl)-2-(4,4-difluoropiperidin-1-yl)ethyl)benzamide]
30 nM | O=C(NCC(c1cnc(C(F)(F)F)nc1)N1CCOCC1)c1ccccc1Cl (single isomer, unassigned; (+)) [(+)2-chloro-N-[2-morpholino-2-[2-(trifluoromethyl)pyrimidin-] [(+)2-Chloro-N-[2-morpholino-2-[2-(trifluoromethyl)pyrimidin-5-yl]ethyl]benzamide]
